Experimental data published in ChEMBL document CHEMBL4613324, “Design, Synthesis, and Evaluation of a Series of Novel Super Long-Acting DPP-4 Inhibitors for the Treatment of Type 2 Diabetes” (J Med Chem, 2020).
Active and inactive are the calls of the source. No cut-off for these calls is given here.

What was measured:
[1] = target: Voltage-gated inwardly rectifying potassium channel KCNH2 (Homo sapiens, UniProt Q12809); experiment: Inhibition of human ERG by manual whole-cell patch-clamp assay
[2] = Toxicity in female Sprague-Dawley rat during 3-month repeated dose toxicology study; conditions: in vivo
Mus musculus [3] = experiment: Antidiabetic activity in ob/ob mouse assessed as reduction in decrease in HbA1c level at 3 mg/kg, po dosed once every three days for 31 day relative to control; assay type: functional; parameters: scale not given: the % may be the effect or the level left
Cytochrome P450 3A5 [4] = target: T1, Cytochrome P450 3A5 (Homo sapiens, UniProt P20815); experiment: (§1) Inhibition of recombinant human CYP3A5 using midazolam as substrate; assay type: ADME
Cytochrome P450 3A5 [5] = target: T1, Cytochrome P450 3A5; experiment: Inhibition of recombinant human CYP3A5 using testosterone as substrate; assay type: ADME
[6] = Half life in ICR mouse at 2 mg/kg, po measured after 0.0833 to 120 hrs by LC-MS-MS analysis; assay type: ADME, organism-based; conditions: in vivo
Cytochrome P450 3A4 [7] = target: T2, Cytochrome P450 3A4 (Homo sapiens, UniProt P08684); experiment: Inhibition of recombinant human CYP3A4 using testosterone as substrate; assay type: ADME
Cytochrome P450 2B6 = target: T3, Cytochrome P450 2B6 (Homo sapiens, UniProt P20813); experiment: Inhibition of recombinant human CYP2B6; assay type: ADME
T3 sequence (P20813 whole entry): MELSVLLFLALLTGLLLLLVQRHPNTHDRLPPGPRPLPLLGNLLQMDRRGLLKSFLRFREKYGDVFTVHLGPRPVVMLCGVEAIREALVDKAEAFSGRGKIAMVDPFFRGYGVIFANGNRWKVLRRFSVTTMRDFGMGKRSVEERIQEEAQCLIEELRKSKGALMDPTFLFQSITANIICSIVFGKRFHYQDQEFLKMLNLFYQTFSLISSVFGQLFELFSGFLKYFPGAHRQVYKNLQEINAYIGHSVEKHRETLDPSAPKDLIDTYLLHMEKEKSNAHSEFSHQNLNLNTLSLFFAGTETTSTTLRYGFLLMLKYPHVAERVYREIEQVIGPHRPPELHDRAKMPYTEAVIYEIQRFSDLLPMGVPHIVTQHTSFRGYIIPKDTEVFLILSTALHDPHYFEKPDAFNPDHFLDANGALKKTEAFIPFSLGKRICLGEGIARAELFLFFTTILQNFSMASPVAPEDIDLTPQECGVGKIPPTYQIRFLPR

[8] = Half life in ICR mouse at 0.5 mg/kg, iv measured after 0.0833 to 120 hrs by LC-MS-MS analysis; assay type: ADME, organism-based; conditions: in vivo
[9] = Toxicity in Sprague-Dawley rat during single oral dose toxicology study; conditions: in vivo
[10] = Volume of distribution at steady state in ICR mouse at 0.5 mg/kg, iv measured after 0.0833 to 120 hrs by LC-MS-MS analysis; assay type: ADME, organism-based; conditions: in vivo, read-out: Vdss
Cytochrome P450 2C8 [11] = target: T4, Cytochrome P450 2C8 (Homo sapiens, UniProt P10632); experiment: (§2) Inhibition of recombinant human CYP2C8; assay type: ADME
T4 sequence (P10632 whole entry): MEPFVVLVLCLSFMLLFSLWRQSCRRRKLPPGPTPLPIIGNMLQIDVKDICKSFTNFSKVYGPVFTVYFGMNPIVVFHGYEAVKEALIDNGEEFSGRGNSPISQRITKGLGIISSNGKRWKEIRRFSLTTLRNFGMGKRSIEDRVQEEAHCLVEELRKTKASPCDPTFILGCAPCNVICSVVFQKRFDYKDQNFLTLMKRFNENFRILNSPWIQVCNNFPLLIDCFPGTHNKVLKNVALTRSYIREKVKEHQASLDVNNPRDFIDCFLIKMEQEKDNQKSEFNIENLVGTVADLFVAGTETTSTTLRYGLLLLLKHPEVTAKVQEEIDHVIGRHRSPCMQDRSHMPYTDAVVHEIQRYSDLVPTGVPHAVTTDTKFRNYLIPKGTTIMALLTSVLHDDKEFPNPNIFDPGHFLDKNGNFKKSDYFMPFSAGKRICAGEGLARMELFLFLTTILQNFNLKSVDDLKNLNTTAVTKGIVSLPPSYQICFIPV

Cytochrome P450 3A4 [12] = target: T2, Cytochrome P450 3A4; experiment: (§3) Inhibition of recombinant human CYP3A4 using midazolam as substrate; assay type: ADME
[13] = Cmax in ICR mouse at 2 mg/kg, po measured after 0.0833 to 120 hrs by LC-MS-MS analysis; assay type: ADME, organism-based; parameters: dose 2 mg/kg, route oral; conditions: in vivo
CYP2B6 = CYP2B6 (Homo sapiens, UniProt P20813); experiment: Stability assessed as recombinant human CYP2B6 mediated compound metabolism by measuring parent compound remaining after 30 mins relative to control; assay type: ADME; conditions: read-out: Stability
CYP1A2 = CYP1A2 (Homo sapiens, UniProt P05177); experiment: Stability assessed as recombinant human CYP1A2 mediated compound metabolism by measuring parent compound remaining after 30 mins relative to control; assay type: ADME; conditions: read-out: Stability
Cytochrome P450 2D6 [14] = target: T5, Cytochrome P450 2D6 (Homo sapiens, UniProt P10635); experiment: (§4) Inhibition of recombinant human CYP2D6; assay type: ADME
[15] = Toxicity in male Sprague-Dawley rat during 3-month repeated dose toxicology study; conditions: in vivo
Cytochrome P450 3A4 [16] = target: T2, Cytochrome P450 3A4; experiment: as §3; assay type: ADME; remark: listed apart in the source
Cytochrome P450 2D6 [17] = target: T5, Cytochrome P450 2D6; experiment: as §4; assay type: ADME; remark: listed apart in the source
[18] = Toxicity in ob/ob mouse assessed as induction of body weight gain at 1 to 10 mg/kg, po dosed once every three days for 31 days; assay type: organism-based; conditions: in vivo, 744 h
Cytochrome P450 3A5 [19] = target: T1, Cytochrome P450 3A5; experiment: as §1; assay type: ADME; remark: listed apart in the source
Cytochrome P450 2C9 = Cytochrome P450 2C9 (Homo sapiens, UniProt P11712); experiment: Inhibition of recombinant human CYP2C9; assay type: ADME
Cytochrome P450 2C8 [20] = target: T4, Cytochrome P450 2C8; experiment: as §2; assay type: ADME; remark: listed apart in the source
Cytochrome P450 2C19 = Cytochrome P450 2C19 (Homo sapiens, UniProt P33261); experiment: Inhibition of recombinant human CYP2C19; assay type: ADME
Mus musculus [21] = experiment: Antidiabetic activity in ob/ob mouse assessed as reduction in decrease in HbA1c level at 3 to 10 mg/kg, po dosed once every three days for 31 day; assay type: functional, organism-based
Cytochrome P450 2E1 = Cytochrome P450 2E1 (Homo sapiens, UniProt P05181); experiment: Inhibition of recombinant human CYP2E1; assay type: ADME
[22] = Intrinsic clearance in mouse liver microsomes at 0.5 uM incubated for 0.5 to 60 mins by LC-MS/MS analysis; assay type: ADME, Microsome; conditions: read-out: CLH
Mus musculus [23] = experiment: Antidiabetic activity in ob/ob mouse assessed as reduction in decrease in HbA1c level at 10 mg/kg, po dosed once every three days for 31 day relative to control; assay type: functional; parameters: scale not given: the % may be the effect or the level left
CYP3A5 = CYP3A5 (Homo sapiens, UniProt P20815); experiment: Stability assessed as recombinant human CYP3A5 mediated compound metabolism by measuring parent compound remaining after 30 mins relative to control; assay type: ADME; conditions: read-out: Stability
Rhesus monkey = experiment: Ex-vivo inhibition of DPP4 in plasma isolated from rhesus monkey treated at 10 mg/kg, ig after 2 weeks by fluorescence based assay relative to control; assay type: functional; conditions: Macaca mulatta, po, 336 h
Mus musculus [24] = experiment: Antidiabetic activity in ob/ob mouse assessed as reduction in random blood glucose levels at 1 to 10 mg/kg, po dosed once every three days for 31 days; assay type: functional, organism-based
CYP2E1 = CYP2E1 (Homo sapiens, UniProt P05181); experiment: Stability assessed as recombinant human CYP2E1 mediated compound metabolism by measuring parent compound remaining after 30 mins relative to control; assay type: ADME; conditions: read-out: Stability
Sequence of CYP2E1 (P05181 whole entry): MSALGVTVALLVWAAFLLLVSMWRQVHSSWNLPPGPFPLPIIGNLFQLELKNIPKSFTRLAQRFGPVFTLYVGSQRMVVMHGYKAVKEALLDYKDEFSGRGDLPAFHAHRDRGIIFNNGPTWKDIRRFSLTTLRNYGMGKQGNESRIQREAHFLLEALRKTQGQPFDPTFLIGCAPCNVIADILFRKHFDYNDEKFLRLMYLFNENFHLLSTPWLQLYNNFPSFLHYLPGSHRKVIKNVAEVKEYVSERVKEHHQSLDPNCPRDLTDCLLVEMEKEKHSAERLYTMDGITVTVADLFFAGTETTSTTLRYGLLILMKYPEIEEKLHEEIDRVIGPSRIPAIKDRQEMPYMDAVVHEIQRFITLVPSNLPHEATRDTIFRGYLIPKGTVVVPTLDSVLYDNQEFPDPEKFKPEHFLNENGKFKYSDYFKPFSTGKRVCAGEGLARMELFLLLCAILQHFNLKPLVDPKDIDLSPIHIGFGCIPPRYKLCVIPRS

T2 sequence (P08684 whole entry): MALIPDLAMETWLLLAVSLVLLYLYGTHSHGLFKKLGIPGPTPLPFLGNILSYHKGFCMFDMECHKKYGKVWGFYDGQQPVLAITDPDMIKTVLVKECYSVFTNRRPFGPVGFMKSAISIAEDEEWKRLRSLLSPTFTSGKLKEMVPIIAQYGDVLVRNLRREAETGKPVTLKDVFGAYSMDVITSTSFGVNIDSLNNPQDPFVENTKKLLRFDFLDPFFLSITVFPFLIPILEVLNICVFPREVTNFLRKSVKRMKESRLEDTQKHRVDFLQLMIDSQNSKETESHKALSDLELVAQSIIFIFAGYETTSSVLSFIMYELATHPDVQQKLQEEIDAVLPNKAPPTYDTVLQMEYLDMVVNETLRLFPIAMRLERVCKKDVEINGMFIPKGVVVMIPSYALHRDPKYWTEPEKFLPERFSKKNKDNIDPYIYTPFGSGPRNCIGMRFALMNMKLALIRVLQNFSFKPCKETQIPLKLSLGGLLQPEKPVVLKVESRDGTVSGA
T1 sequence (P20815 whole entry): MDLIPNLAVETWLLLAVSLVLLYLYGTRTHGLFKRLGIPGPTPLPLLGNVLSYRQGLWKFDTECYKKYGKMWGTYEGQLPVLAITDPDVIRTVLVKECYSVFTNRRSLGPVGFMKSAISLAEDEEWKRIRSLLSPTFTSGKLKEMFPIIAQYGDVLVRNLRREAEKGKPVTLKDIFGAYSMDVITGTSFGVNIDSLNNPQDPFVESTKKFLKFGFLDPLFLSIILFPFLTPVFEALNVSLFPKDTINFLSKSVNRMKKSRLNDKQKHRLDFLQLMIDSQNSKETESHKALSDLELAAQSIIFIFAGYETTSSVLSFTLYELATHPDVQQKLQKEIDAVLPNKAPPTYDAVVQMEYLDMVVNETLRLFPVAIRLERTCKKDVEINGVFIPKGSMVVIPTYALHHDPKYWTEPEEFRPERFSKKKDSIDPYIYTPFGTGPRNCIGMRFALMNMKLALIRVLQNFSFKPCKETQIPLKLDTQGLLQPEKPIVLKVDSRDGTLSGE
T5 sequence (P10635 whole entry): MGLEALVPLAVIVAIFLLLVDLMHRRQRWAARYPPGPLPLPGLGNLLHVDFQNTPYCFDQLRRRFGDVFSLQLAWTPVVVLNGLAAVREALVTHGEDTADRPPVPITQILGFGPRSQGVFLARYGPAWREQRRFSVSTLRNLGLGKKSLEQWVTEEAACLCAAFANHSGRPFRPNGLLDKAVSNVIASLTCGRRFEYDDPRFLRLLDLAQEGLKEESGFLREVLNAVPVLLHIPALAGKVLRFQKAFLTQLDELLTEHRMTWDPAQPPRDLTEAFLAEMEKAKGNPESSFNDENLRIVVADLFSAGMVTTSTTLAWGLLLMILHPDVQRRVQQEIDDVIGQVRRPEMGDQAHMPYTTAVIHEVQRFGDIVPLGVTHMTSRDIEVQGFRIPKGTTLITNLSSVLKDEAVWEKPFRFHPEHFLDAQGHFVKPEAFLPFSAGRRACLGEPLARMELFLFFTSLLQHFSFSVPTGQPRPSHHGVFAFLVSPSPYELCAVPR
Sequence of CYP3A5 (P20815 whole entry): as the sequence (P20815 whole entry) above
Sequence of Cytochrome P450 2C9 (P11712 whole entry): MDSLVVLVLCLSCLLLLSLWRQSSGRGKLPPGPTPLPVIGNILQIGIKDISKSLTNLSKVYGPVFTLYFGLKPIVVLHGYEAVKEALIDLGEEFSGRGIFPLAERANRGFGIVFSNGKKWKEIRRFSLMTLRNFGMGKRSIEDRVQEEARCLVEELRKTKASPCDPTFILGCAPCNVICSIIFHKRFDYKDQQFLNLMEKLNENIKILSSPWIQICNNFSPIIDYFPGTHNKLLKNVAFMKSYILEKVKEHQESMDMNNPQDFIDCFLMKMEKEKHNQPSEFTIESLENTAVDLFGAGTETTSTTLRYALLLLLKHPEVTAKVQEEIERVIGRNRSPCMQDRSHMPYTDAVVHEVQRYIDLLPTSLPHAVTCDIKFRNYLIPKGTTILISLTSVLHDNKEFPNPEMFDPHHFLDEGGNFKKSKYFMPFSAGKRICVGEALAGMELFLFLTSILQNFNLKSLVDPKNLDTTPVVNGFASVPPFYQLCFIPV
Sequence of Cytochrome P450 2E1 (P05181 whole entry): as the sequence (P05181 whole entry) above
Sequence of Voltage-gated inwardly rectifying potassium channel KCNH2 (Q12809 whole entry): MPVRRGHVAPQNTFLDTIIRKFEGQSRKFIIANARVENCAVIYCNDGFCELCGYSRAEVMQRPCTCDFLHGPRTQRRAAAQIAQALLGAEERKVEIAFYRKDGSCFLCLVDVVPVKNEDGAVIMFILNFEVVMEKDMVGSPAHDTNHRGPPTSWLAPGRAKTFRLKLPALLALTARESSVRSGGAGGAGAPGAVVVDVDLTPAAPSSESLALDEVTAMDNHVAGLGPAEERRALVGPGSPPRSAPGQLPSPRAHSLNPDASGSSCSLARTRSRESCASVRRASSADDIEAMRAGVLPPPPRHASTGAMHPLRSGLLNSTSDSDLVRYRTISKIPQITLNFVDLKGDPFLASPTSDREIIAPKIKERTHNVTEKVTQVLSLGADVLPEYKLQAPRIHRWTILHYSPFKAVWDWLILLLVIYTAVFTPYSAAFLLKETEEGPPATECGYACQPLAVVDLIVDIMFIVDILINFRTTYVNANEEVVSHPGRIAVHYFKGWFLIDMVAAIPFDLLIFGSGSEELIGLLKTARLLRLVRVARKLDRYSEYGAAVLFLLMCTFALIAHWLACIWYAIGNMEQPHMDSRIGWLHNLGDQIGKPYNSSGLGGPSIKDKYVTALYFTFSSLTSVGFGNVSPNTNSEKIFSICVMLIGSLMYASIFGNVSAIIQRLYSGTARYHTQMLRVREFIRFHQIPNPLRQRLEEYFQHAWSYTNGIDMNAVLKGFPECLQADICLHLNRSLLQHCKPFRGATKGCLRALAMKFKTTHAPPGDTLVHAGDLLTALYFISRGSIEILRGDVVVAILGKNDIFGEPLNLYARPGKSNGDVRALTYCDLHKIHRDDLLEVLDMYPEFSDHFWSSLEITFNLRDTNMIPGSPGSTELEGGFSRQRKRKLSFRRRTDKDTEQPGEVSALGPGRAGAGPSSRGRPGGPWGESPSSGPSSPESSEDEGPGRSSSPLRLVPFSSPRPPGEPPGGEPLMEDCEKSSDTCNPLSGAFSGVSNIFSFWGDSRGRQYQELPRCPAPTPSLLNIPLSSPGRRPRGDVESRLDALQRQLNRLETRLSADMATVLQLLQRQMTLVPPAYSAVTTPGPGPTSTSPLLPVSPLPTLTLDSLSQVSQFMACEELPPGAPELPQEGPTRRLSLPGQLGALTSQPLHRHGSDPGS
Sequence of Cytochrome P450 2C19 (P33261 whole entry): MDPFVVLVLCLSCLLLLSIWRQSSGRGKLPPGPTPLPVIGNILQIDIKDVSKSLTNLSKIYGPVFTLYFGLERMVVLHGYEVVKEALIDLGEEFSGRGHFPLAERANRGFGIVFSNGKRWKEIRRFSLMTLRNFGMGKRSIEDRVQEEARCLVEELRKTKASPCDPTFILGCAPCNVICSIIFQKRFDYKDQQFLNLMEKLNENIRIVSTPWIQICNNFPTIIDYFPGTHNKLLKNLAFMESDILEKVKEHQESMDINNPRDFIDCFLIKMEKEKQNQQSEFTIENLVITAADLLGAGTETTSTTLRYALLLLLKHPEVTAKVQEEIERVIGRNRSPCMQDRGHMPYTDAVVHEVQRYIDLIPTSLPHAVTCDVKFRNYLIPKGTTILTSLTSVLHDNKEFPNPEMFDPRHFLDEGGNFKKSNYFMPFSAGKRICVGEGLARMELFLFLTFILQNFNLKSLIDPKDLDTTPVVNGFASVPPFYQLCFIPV
Sequence of CYP1A2 (P05177 whole entry): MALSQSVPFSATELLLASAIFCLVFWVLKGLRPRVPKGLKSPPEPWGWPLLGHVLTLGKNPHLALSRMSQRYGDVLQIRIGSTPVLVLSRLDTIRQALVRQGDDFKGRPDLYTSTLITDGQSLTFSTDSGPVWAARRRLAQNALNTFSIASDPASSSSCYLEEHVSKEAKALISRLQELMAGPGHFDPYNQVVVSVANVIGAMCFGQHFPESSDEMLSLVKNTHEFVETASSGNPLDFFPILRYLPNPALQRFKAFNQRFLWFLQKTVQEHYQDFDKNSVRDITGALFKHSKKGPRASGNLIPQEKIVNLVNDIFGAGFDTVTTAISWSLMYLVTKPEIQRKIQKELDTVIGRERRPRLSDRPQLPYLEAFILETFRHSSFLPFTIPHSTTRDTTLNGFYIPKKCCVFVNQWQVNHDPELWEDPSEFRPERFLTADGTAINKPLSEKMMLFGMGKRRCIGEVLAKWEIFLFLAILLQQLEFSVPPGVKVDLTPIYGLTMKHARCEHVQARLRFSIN

CS(=O)(=O)n1cc2c(n1)CN([C@@H]1C[C@H](N)[C@@H](c3cc(F)ccc3F)O[C@@H]1C(F)(F)F)C2 [COFROGLIPTIN]
IC50 [1]: > 30 µM
NOAEL at 3 month [2]: 100 mg/kg
Activity (Mus musculus [3]): 19.1%
IC50 (Cytochrome P450 3A5 [4]): > 100 µM
IC50 (Cytochrome P450 3A5 [5]): > 100 µM
half-life [6]: 29.9 h
IC50 (Cytochrome P450 3A4 [7]): > 100 µM
IC50 (Cytochrome P450 2B6): > 100 µM
half-life [8]: 25.6 h
MTD [9]: 1000 mg/kg
Vd [10]: 3.3 L/kg
IC50 (Cytochrome P450 2C8 [11]): 76.3 µM
IC50 (Cytochrome P450 3A4 [12]): > 100 µM
Cmax [13]: 352 ng/mL
remaining at 0.5 h (CYP2B6): > 95%
remaining at 0.5 h (CYP1A2): > 95%
IC50 (Cytochrome P450 2D6 [14]): > 100 µM
NOAEL at 3 month [15]: 300 mg/kg
IC50 (Cytochrome P450 3A4 [16]): 45.8 µM
IC50 (Cytochrome P450 2D6 [17]): > 100 µM
Activity [18]: Toxic
IC50 (Cytochrome P450 3A5 [19]): 45.8 µM
IC50 (Cytochrome P450 2C9): > 100 µM
IC50 (Cytochrome P450 2C8 [20]): > 100 µM
IC50 (Cytochrome P450 2C19): > 100 µM
Activity (Mus musculus [21]): Active
IC50 (Cytochrome P450 2E1): > 100 µM
microsomal CLint at 0.5 µM [22]: 0.8 µL/min/mg
Activity (Mus musculus [23]): 16.2%
remaining at 0.5 h (CYP3A5): > 95%
inhibition in vivo at 10 mg/kg (Rhesus monkey): 76.2%
Activity (Mus musculus [24]): Active
remaining at 0.5 h (CYP2E1): > 95%
